Data published in patent US12351834B2, “Compositions and methods for the treatment of ornithine transcarbamylase deficiency” (Arcturus Therapeutics, Inc., priority 2020, dated 2025).
Where two headings read alike, the source gives them in different places.

How the values were obtained:
[1] = In vivo tissue lipid clearance in Balb/c mice; parameters: species or system mouse; conditions: for Tmax / half-life / concentration at 28 days: Balb/c, mouse; for ranking of lipid level by tissue / time post-dose by which lipid no longer detected in plasma: single IV bolus 1 mg/kg of the lipid formulation; for concentration at 28 days: 28 days post-dose
Protocol: Additional studies were conducted to evaluate the in vivo tissue clearance profile of Lipid #7 and Lipid #3 in Balb/c mice. The clearance profiles in mouse tissue and plasma can be found in FIG. 25 (for Lipid #7) and FIG. 26 (for Lipid #3). All animals received a single intravenous bolus treatment of 1 mg/kg of the Lipid #7 formulation at a dosing volume of 10 mL/kg. Plasma, liver, kidney, and spleen were collected from mice (n=3 mice per timepoint) at 0, 2, 15, 30 minutes; 1, 2, 4, 6, 8, 12, 24, 48 hours; and 5, 7, 21, 28 days post-dose. All samples were analyzed for Lipid #7 concentrations.
All animals received a single intravenous bolus treatment of 1 mg/kg of the Lipid #3 formulation at a dosing volume of 10 mL/kg. Plasma was collected from mice (n=3 per timepoint) at 0.25, 1, 2, 4, 6, 12, 24, 120, and 168 hours post-dose. Liver, kidney, and spleen were collected from mice (n=3 per timepoint) at 0.033, 0.25, 1, 2, 4, 6, 12, 24, 120, and 168 hours; 1, 2, 3, 4-weeks post-dose. Heart, brain and lungs were collected from mice (n=3 per timepoint) at 0.25 hours; 1, 2-weeks post-dose. Only samples from 0.25 hrs to 1-week post-dose were analyzed for Lipid #3 tissue concentrations.

Spf/ash mice [2] = assay: Urinary orotate levels in Spf/ash mice; format: in vivo, mouse; conditions: 1 mg/kg and 3 mg/kg IV
Protocol: Spf/ash mice received an IV injection with either PBS or lipid-formulated OTC-mRNA construct 1799.7 (5MeOU chemistry) at three different doses: 0.3 mg/kg, 1 mg/kg and 3 mg/kg. Urinary orotate levels were determined in untreated wild-type (WT) and both untreated and treated Spf/ash mice. A urinary orotate time course was performed in Spf/ash and WT mice, and urinary orotate levels were measured at each timepoint. The results can be seen in FIG. 12. Urinary orotate was normalized to creatinine, which is represented in the graph on the y-axis throughout the time course and served as a proof-of-concept of functional restoration of OTC activity post-injection.
Spf/ash mice received an IV injection with either PBS or lipid-formulated (as described in Example 1) OTC-mRNA at 1 mg/kg and 3 mg/kg. WT mice were included as an internal control. Urinary orotate levels were measured at 0, 1, 3, 7 and 14 days, and levels were normalized to creatinine (FIG. 16).

Spf/ash mice [3] = assay: Western Blot of mitochondrial and cytosolic liver fractions of Spf/ash mice; format: in vivo, mouse
Protocol: Spf/ash mice received an IV injection with either PBS or lipid-formulated (as described in Example 1) OTC-mRNAs at 1 mg/kg and 3 mg/kg. WT mice were used as internal controls. Livers were harvested from the mice and sample fractionation was performed on the liver samples, separating the cytosolic and mitochondrial fractions. OTC levels were measured by Western Blot (WB) using human specific (hOTC) and crossreactive (crOTC) antibodies (FIG. 14). […] (CoxIV) was used as a mitochondrial control. OTC protein expression levels were measured by near-infrared fluorescent imaging systems and normalized to total protein.
Spf/ash mice received an IV injection with either PBS or lipid-formulated OTC-mRNAs at 3 mg/kg. WT mice were used as internal controls. Sample fractionation was performed on liver samples harvested from the mice, separating the cytosolic and mitochondrial fractions. OTC levels were measured by Western Blot using a human specific antibody. OTC protein expression levels were measured by near-infrared fluorescent imaging systems and both fractions, normalized to total protein, were plotted (FIG. 15). […] The 2260 compound includes a modified mitochondrial signaling peptide sequence provided herein.

[4] = kidney, 1 mg/kg IV, read-out: half-life, kidney (converted)
[5] = liver, 1 mg/kg IV, read-out: half-life, liver (converted)
[6] = plasma, 1 mg/kg IV, read-out: half-life, plasma (converted)

tissue clearance assessment ([1]; 1 mg/kg IV)	detection in brain tissue ([1]; 1 mg/kg IV, either time point post-dose)	time post-dose through which concentrations persisted, all other tissues ([1]; 1 mg/kg IV, close to LLOQ)	time post-dose through which concentrations persisted, liver ([1]; 1 mg/kg IV, close to LLOQ)	Tmax ([1]; kidney, 1 mg/kg IV, read-out: Tmax, kidney)	half-life [1, 4]	Tmax ([1]; liver, 1 mg/kg IV, read-out: Tmax, liver)	half-life [1, 5]	half-life [1, 6]	Tmax ([1]; spleen, 1 mg/kg IV, read-out: Tmax, spleen)	half-life ([1]; spleen, 1 mg/kg IV, read-out: half-life, spleen (converted))	time post-dose by which lipid no longer detected in plasma [1]	concentration at 28 days ([1]; kidney, 1 mg/kg IV, read-out: lipid concentration in the kidney)	concentration at 28 days ([1]; liver, 1 mg/kg IV, read-out: lipid concentration in the liver)	concentration at 28 days ([1]; spleen, 1 mg/kg IV, read-out: lipid concentration in the spleen)	Molecule	ranking of lipid level by tissue [1]	dose dependence of urinary orotate reduction (Spf/ash mice [2])	duration of reduced urinary orotate levels (Spf/ash mice [2]; measured at 0, 1, 3, 7 and 14 days)	targeting of expressed OTC to the mitochondria (Spf/ash mice [3]; 1 mg/kg and 3 mg/kg IV, liver fractions)	human OTC protein level in mitochondrial fraction (Spf/ash mice [3]; 3 mg/kg IV, liver, normalized to total protein)
rapid tissue clearance	not detected in brain tissue	120 h	168 h	0.033 to 1 h	19 h	0.033 to 1 h	22 h	0.45 h	1 to 2 h	24 h	≤ 4 h	–	–	–	CCCCCC/C=C\COC(=O)CCCCCN(CCCCCC(=O)OC(CCCCCCC)CCCCCCC)C(=O)SCCN(C)C [Lipid #3]	liver>plasma>spleen>kidney>lung>heart>brain	–	–	–	–
–	–	–	–	–	234 h	–	84 h	57 h	–	–	≤ 336 h	2.34 ng/mL	17.2 ng/mL	18.4 ng/mL	CCCCCCCC(CCCCCCC)OC(=O)CCCN(CCCC(=O)OC(CCCCCCC)CCCCCCC)C(=O)SCCCN(C)C [Lipid #7]	liver>spleen>plasma>kidney	–	–	–	–
–	–	–	–	–	–	–	–	–	–	–	–	–	–	–	Construct 2260: mRNA construct, SEQ ID NO: 251, encodes modified human OTC protein of SEQ ID NO: 4 (nucleic acid) sense: AGGAUUAUUACAUCAAAACAAAAAGCCGCCACCAUGCUGGUAUUCAACCUGCGCAUCCUGCUGAACAACGCCGCCUUCCGCAACGGCCACAACUUCAUGGUGCGCAACUUCCGCUGCGGCCAGCCCCUGCAGAACCGGGUGCAGCUGAAGGGCCGCGACCUGCUGACCCUGAAGAACUUCACCGGCGAGGAGAUCCGGUACAUGCUGUGGCUGAGCGCCGACCUGAAGUUCCGCAUCAAGCAGAAGGGCGAGUACCUGCCCCUGCUGCAGGGCAAGAGCCUGGGCAUGAUCUUCGAGAAGCGCAGCACCCGCACCCGCCUGAGCACCGAGACAGGCUUCGCCCUGCUGGGCGGCCACCCCUGCUUCCUGACCACCCAGGACAUCCACCUGGGCGUGAACGAGAGCCUGACCGACACCGCCCGCGUGCUGAGCAGCAUGGCCGACGCCGUGCUGGCCCGCGUGUACAAGCAGAGCGACCUGGACACCCUGGCCAAGGAGGCCAGCAUCCCCAUCAUCAACGGCCUGAGCGACCUGUACCACCCCAUCCAGAUCCUGGCCGACUACCUGACCCUGCAGGAGCACUACAGCAGCCUGAAGGGCCUGACCCUGAGCUGGAUCGGCGACGGCAACAACAUCCUGCACAGCAUCAUGAUGAGCGCCGCCAAGUUCGGCAUGCACCUGCAGGCCGCCACCCCCAAGGGCUACGAGCCCGACGCCAGCGUGACCAAGCUGGCCGAGCAGUACGCCAAGGAGAACGGCACCAAGCUGCUGCUGACCAACGACCCCCUGGAGGCCGCCCACGGCGGCAACGUGCUGAUCACCGACACCUGGAUCAGCAUGGGCCAGGAGGAGGAGAAGAAGAAGCGCCUGCAGGCCUUCCAGGGCUACCAGGUGACCAUGAAGACCGCCAAGGUGGCCGCCAGCGACUGGACCUUCCUGCACUGCCUGCCCCGCAAGCCCGAGGAGGUGGACGACGAGGUGUUCUACAGCCCCCGCAGCCUGGUGUUCCCCGAGGCCGAGAACCGCAAGUGGACCAUCAUGGCCGUGAUGGUGAGCCUGCUGACCGACUACAGCCCCCAGCUGCAGAAGCCCAAGUUCUGAGGUCUCUAGUAAUGAGCUGGAGCCUCGGUAGCCGUUCCUCCUGCCCGCUGGGCCUCCCAACGGGCCCUCCUCCCCUCCUUGCACCGGCCCUUCCUGGUCUUUGAAUAAAGUCUGAGUGGGCAGCAUCUAG	–	dose-dependent manner	up to 14 days	can efficiently target the mitochondria	delivers more human OTC than 2016 in the mitochondria
